Results published in patent US20250241878A1, “TYROSINE AND RESVERATROL DERIVATIVES AS NOVEL MODULATORS OF CELLULAR SERINE ADP-RIBOSYLATION” (UNIVERSITY OF SOUTH CAROLINA, priority 2022, published 2025).
Like-named read-outs stand apart in the source and are kept apart here.

Legend:
TyrRS = type: cell-based, rat; settings: for effect on NMDA- and MPP+-mediated decrease of neuronal TyrRS: combination with NMDA or MPP+, 4 hr
Procedure: (§1) Primary cortical neurons were dissected from E18 Sprague Dawley rat pups in Hibernate E (BrainBits®) and dissociated using the Neural Tissue Dissociation kit (Miltenyi Biotec). Minced cortices were incubated in a pre-warmed enzyme mix at 37° C. for 15 min; tissues were then triturated and strained using a 40 μm cell strainer. After washing and centrifugation, neurons were seeded in 50 μg/ml poly-D-Lysine (Sigma-Aldrich) coated tissue culture plates. NBActive-1 medium (BrainBits®) supplemented with 100 U/ml of Penicillin-Streptomycin (Life Technologies™), 2 mM L-Glutamine (Life Technologies™), and 1×N21 supplement (R&D Systems™) was used as culture medium. For preparation of culture medium containing reduced tyrosine, the components of NBActive-1 medium were altered to combined with a reduced concentration of tyrosine, as mentioned in Table 1, and was supplemented with 100 U/ml of Penicillin-Streptomycin (Life Technologies™), 2 mM L-Glutamine (Life Technologies™), and 1×N21 supplement (R&D Systems™) to obtained culture medium with reduced tyrosine. Control (non-targeting), TyrRS, and PARP1 siRNAs were obtained from Invitrogen™ (#AM4635, s443, and s130207, respectively). Rat cortical neurons at 5 DIV were transfected with 75 nM control or TyrRS siRNA using DharmaFECT™ 3 Transfection Reagent. A second transfection was done two days later using 75 nM of TyrRS siRNA, followed by cell collection or assays after another 48 hr. For PARP1 siRNA, neurons at 7 DIV were transfected with 75 nM siRNA for both control and PARP1 siRNA.
(§2) Cultured neurons (DIV 9-10) were washed once with cold 1×PBS and lysed in cell lysis buffer (20 mM Tris-HCl (pH 7.5), 150 mM NaCl, 1 mM Na2EDTA, 1 mM EGTA, 1% Triton™, 2.5 mM sodium pyrophosphate, 1 mM beta-glycerophosphate, 1 mM Na3VO4, 1 μg/ml leupeptin supplemented with protease inhibitor). The lysates were centrifuged at 10,000 RPM for 15 mins at 4° C. to separate the chromatin-bound and soluble fractions. Lysates were quantified using Bio-Rad™ Protein Assay and equal amounts of protein were loaded onto a 4 to 12% gradient gel (Invitrogen™ NuPAGE™). Protein was transferred from the gel to 0.2 μm NC membranes at 25 V for 10 mins using transfer stacks (iBlot™ 2-Invitrogen™) and blocked with 5% non-fat milk in TBST (10 mM Tris-HCl pH 8.0, 150 mM NaCl, 0.01% Tween-20) for 1 hr before application of primary antibodies. Primary and secondary antibodies were incubated overnight at 4° C. and for 1 hr at room temperature, respectively. Immobilon® ECL Ultra Western HRP Substrate (WBULS0500, Millipore™) and a luminescent image analyzer (ChemiDoc™ Imaging System, Bio-Rad™) were used to detect proteins. Quantification of western blots was done using ImageJ (Version 1.53c).
(§3) Cultured cortical neurons (DIV 9-10) were fixed in 4% formaldehyde for 15 min, followed by permeabilization and blocking for 30 min in 5% BSA (PBS) and 0.1% Tween™ 20 at room temperature. Incubation with primary antibodies was done at 4° C. overnight. The names and dilutions of the primary antibodies used for IF are described in Table 3. Secondary antibodies were incubated for 1 hr at room temperature. Secondary antibodies used were Alexa Fluor® 647 (anti-chicken), Alexa Fluor® 555 (anti-mouse), Alexa Fluor® 488 (anti-rabbit) from Invitrogen™ at 1:1000 dilution. Coverslips were then mounted using DAPI (4′,6-diamidino-2-phenylindole)-supplemented mounting medium, ProLong™ Gold Antifade (Invitrogen™) and imaged with Leica DMI6000 epifluorescent microscope using oil immersion 63×/NA 1.4 objective. The quantification for total protein levels in neurons was done using ImageJ (version 1.53c), and imaging parameters were matched for exposure, gain, and offset.
(§4) The various compounds used for treatments and their stock concentrations in Table 4.

PheRSα/β = PheRSα/β protein levels in cortical neurons (Western blot); type: cell-based, rat
Procedure: as §1, §2, §4

eEF2 = eEF2 phosphorylation (p-eEF2) Western blot in cortical neurons; type: cell-based, rat; settings: compound alone
Procedure: as §1, §2

[1] = target: T1, interaction of eEF2 with TyrRS and PP2A (Rattus norvegicus, UniProt Q4KM49); test: eEF2 immunoprecipitation probed for PP2A and TyrRS; type: cell-based; settings: compound alone
T1 construct: endogenous in cells; host or cells: primary rat (E18 Sprague Dawley) cortical neurons
T1 sequence (Q4KM49 1-528): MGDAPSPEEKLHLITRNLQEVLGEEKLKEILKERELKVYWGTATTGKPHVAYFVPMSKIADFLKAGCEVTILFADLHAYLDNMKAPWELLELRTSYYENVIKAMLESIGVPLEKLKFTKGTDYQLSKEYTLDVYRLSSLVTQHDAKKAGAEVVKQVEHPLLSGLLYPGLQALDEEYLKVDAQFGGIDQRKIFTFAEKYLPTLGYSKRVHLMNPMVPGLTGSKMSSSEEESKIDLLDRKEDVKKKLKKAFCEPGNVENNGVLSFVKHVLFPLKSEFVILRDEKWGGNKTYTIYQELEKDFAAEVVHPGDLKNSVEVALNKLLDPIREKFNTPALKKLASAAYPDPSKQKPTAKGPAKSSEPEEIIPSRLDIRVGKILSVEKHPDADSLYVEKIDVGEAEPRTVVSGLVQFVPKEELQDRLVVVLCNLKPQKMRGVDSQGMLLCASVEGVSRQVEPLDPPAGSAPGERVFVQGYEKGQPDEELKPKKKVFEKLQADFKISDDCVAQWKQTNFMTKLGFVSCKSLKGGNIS
Source text: Immunoprecipitated eEF2 was probed for its interaction with PP2A and TyrRS using their specific antibodies.

8-oxo-dG = 8-oxo-dG immunofluorescence in cortical neurons; type: cell-based, rat; settings: for 8-oxo-dG (oxidative DNA damage marker): compound alone
Procedure: as §3

cortical neurons = test: Comet assay; type: cell-based, rat; settings: for DNA damage, percentage (%) of DNA in the comet tail: compound alone
Procedure: The cells were harvested with a cell scraper using chilled PBS and counted. The comet assay (Trevigen®, Gaithersburg, MD) was performed according to standard methods using alkaline conditions. Electrophoresis was carried out at the rate of 1.0 V/cm for 20 min. The slides were removed from the electrophoresis chamber, washed twice in deionized water for 5 min and immersed in 70% ethanol for 5 min. Subsequently, the slides were dried at 37° C. for 30 min, DNA was stained with 50 μL of SYBR™ Gold dye (Fisher Scientific, 1:10000 in Tris-EDTA buffer, pH 7.5) for 20 min in the dark at room temperature and then analyzed using an epifluorescent microscope at 10× magnification. The images were scored for comet parameters, such as tail length and tail moment (product of % of DNA in the tail and tail length), using the TriTek CometScore™ Freeware v1.5 image analysis software.

[2] = system: histone H3-Ser10-ADP-ribosylation; test: Histone H3 serine-ADP-ribosylation immunoblot in cortical neurons; type: cell-based, rat; settings: compound alone
Procedure: FIG. 5B presents representative immunoblots and quantification of histone H3-Ser10-ADP-ribosylation levels in cortical neurons (DIV9) using anti-H3-Ser10-ADPR antibody after treatment with D-tyrosine (2.5 and 5 mM).
as §2

SMILES | TyrRS protein levels (TyrRS; cis-RSV 10-50 μM) | effect on trans-RSV- and tyrosine-mediated decrease in TyrRS levels (TyrRS; combination treatment) | effect on NMDA- and MPP+-mediated decrease of neuronal TyrRS (TyrRS) | effect on nelfinavir-mediated depletion of TyrRS (TyrRS; combination with nelfinavir) | PheRSβ and PheRSα levels (PheRSα/β; low concentration cis-RSV) | eEF2 phosphorylation (p-eEF2) (eEF2) | interaction of eEF2 with TyrRS and PP2A [1] | effect on tyrosine-induced accumulation of 8-oxo-dG (8-oxo-dG; combination with tyrosine) | effect on DNA damage caused by Tyr (cortical neurons; combination with Tyr) | DNA damage, percentage (%) of DNA in the comet tail (cortical neurons) | histone H3 serine-ADP-ribosylation [2] | TyrRS protein levels (TyrRS; high dose of trans-RSV (50 μM)) | TyrRS protein levels (TyrRS; low dose of trans-RSV (10 μm)) | PheRSα levels (PheRSα/β; high concentration trans-RSV) | PheRSβ levels (PheRSα/β; high concentration trans-RSV) | 8-oxo-dG (oxidative DNA damage marker) (8-oxo-dG) | time until TyrRS levels were restored (TyrRS; after tyrosine treatment) | TyrRS protein levels (TyrRS; compound alone, rat cortical neurons) | PheRSβ levels (PheRSα/β; compound alone) | levels of PheRSβ (PheRSα/β; second statement of the same sentence, see doubts)
Oc1ccc(/C=C\c2cc(O)cc(O)c2)cc1 [cis-RSV, cis-resveratrol] | increased TyrRS protein levels both in the nucleus and neurites | rescued the effects of trans-RSV and tyrosine-mediated decrease in TyrRS levels in a dose-dependent manner | suppressed this effect | rescued | increased their levels | activated the dephosphorylation of eEF2 | facilitated the interaction of eEF2 with TyrRS and PP2A | rescued tyrosine-induced accumulation of γ-H2AX and 8-oxo-dG | attenuated the increase in DNA damage caused by Tyr | did not cause an increase in percentage of DNA in the comet tail | stimulated serine-ADP-ribosylation | – | – | – | – | – | – | – | – | –
Oc1ccc(/C=C/c2cc(O)cc(O)c2)cc1 [trans-RSV, trans-resveratrol] | – | – | exacerbated it | – | – | increased p-eEF2 levels | decreased their interactions | – | – | significantly increased DNA damage | inhibiting histone H3 serine-ADP-ribosylation | decreased it | increased TyrRS | decreased PheRSβ, not PheRSα levels | decreased PheRSβ | caused the accumulation of γ-H2AX and 8-oxo-dG | – | – | – | –
N[C@@H](Cc1ccc(O)cc1)C(=O)O [tyrosine, L-tyrosine] | – | – | – | – | – | inhibited eEF2 | decreased their interactions | – | – | significantly increased DNA damage | inhibiting histone H3 serine-ADP-ribosylation | – | – | – | – | resulted in the accumulation | 16 to 24 h | decreased TyrRS | depleted PheRSβ | did not affect the levels of PheRSβ
